# Measurements reported in US20040023972A1, “Use of substituted imidazo[1,2-a]-pyridin-, -pyrimidin-and-pyrazin-3-yl-amine derivatives in the preparation of medicaments for inhibiting NOS” (Gruenenthal GmbH, priority 2000, published 2004).
# Where a name gives a salt, the structure may show the parent alone.
# Molecular target: T1, NO synthase (Rattus norvegicus, UniProt P29476)
# T1 construct: the supernatant was then removed by decantation and frozen in portions at −80° C; from tissue; host or cells: rat cerebellum, 20,000 g supernatant of homogenate
# Assay: HTS-NOS assay (NOS assay): conversion of radioactive arginine, cation-exchanger filter plate
# Assay type: biochemical
# Conditions: 10 μM
# Method in brief: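 Rat cerebellum supernatant as NOS source, incubated with radiolabelled arginine plus cofactors including NADPH at 25 °C for 5-60 min depending on enzyme activity. Unconverted arginine was trapped on a cation-exchange filter plate, citrulline washed out, and bound arginine counted by scintillation; % inhibition versus no-compound reactions.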
row,Molecule,HTS-NOS assay: % inhibition (10 μM)
1,"C#[N+]CCCCCCN(C(C)=O)c1c(-c2ccccn2)nc2cc(C)cc(C)n12 [Example 289, {6-[acetyl-(5,7-dimethyl-2-pyridin-2-yl-imidazo[1,2-a]pyridin-3-yl)-amino]-hexyl}-methylidyne-ammonium]",63%
2,"[6-(acetyl-{7-methyl-2-[5-(2-nitro-phenyl)-furan-2-yl]-imidazo[1,2-a]pyridin-3-yl}-amino)-hexyl]-methylidyne-ammonium [Example 215]",50%

# Same assay, conditions: Table 5; concentration not given
row,Molecule,NOS assay % inhibition
1,"Cc1cc(C)n2c(NC3CCCC3)c(-c3ccc(Br)cc3F)nc2c1.Cl [Example 304, [2-(4-Bromo-2-fluoro-phenyl)-5,7-dimethyl-imidazo[1,2-a]pyridin-3-yl]-cyclopentyl-amine hydrochloride]",56%
2,"Cc1cc(C)n2c(NC3CCCC3)c(-c3ccc(-c4ccccc4[N+](=O)[O-])o3)nc2c1.Cl [Example 305, Cyclopentyl-{5,7-dimethyl-2-[5-(2-nitro-phenyl)-furan-2-yl]-imidazo[1,2-a]pyridin-3-yl}-amine hydrochloride]",55%
3,"Cc1cc(C)n2c(NC3CCCC3)c(-c3ccc(-c4ccc(Cl)cc4)o3)nc2c1.Cl [Example 306, {2-[5-(4-Chlorophenyl)-furan-2-yl]-5,7-dimethyl-imidazo[1,2-a]pyridin-3-yl}-cyclopentyl-amine hydrochloride]",73%
4,"Cc1cc(C)n2c(NC3CCCC3)c(-c3ccoc3)nc2c1.Cl [Example 307, Cyclopentyl-(2-furan-3-yl-5,7-dimethyl-imidazo(1,2-a]pyridin-3-yl)-amine hydrochloride]",57%
5,"Cc1cc(C)n2c(NC(C)(C)CC(C)(C)C)c(-c3ccoc3)nc2c1.Cl [Example 308, (2-Furan-3-yl-5,7-dimethyl-imidazo[1,2-a]-pyridin-3-yl)-(1,1,3,3-tetramethyl-butyl)-amine hydrochloride]",50%
6,"Cc1ccn2c(NCc3ccccc3)c(-c3ccsc3)nc2c1.Cl [Example 309, Benzyl-(7-methyl-2-thiophen-3-yl-imidazo-[1,2-a]pyridin-3-yl)-amine hydrochloride]",45%

# Further lines, results first:
row,NOS assay % inhibition,Molecule
1,45%,"Cc1ccn2c(NC(C)(C)CC(C)(C)C)c(-c3ccoc3)nc2c1.Cl [Example 311, (2-Furan-3-yl-7-methyl-imidazo[1,2-a]pyridin-3-yl)-(1,1,3,3-tetramethyl-butyl)-amine hydrochloride]"
2,74%,"Cc1cc(C)n2c(NC(C)(C)CC(C)(C)C)c(-c3ccsc3)nc2c1.Cl [Example 312, (5,7-Dimethyl-2-thiophen-3-yl-imidazo[1,2-a]-pyridin-3-yl)-(1,1,3,3-tetramethyl-butyl)-amine hydrochloride]"

# Same assay, conditions: Table 5; concentration not given; hydrochloride
row,NOS assay % inhibition,Molecule
1,54%,"Cc1cc(C)n2c(NC3CCCCC3)c(-c3ccoc3)nc2c1.Cl [Example 302, Cyclohexyl-(2-furan-3-yl-5,7-dimethyl-imidazo-[1,2-a]pyridin-3-yl)-amine hydrochloride]"
2,52%,"Cc1cc(C)n2c(NC3CCCCC3)c(-c3ccoc3)nc2c1.Cl [Example 310, Cyclohexyl-(2-furan-3-yl-5,7-dimethyl-imidazo-[1,2-a]pyridin-3-yl)-amine hydrochloride]"

# Same assay, conditions: read-out: HTS-NOS assay: % inhibition (10 μM)
row,Molecule,inhibition at 10 µM
1,"CC(=O)N(c1c(-c2cc3ccccc3o2)nc2c(C)cccn12)C(C)(C)CC(C)(C)C [Example 286, N-(2-benzofuran-2-yl-8-methyl-imidazo[1,2-a]pyridin-3-yl)-N-(1,1,3,3-tetramethyl-butyl)-acetamide]",59%
2,"CCCCN(C(C)=O)c1c(-c2ccc(C)cc2)nc2nc(C)ccn12 [Example 287, N-butyl-N-(7-methyl-2-p-tolyl-imidazo[1,2-a]pyrimidin-3-yl)-acetamide]",58%
3,"CC(=O)N(c1c(C)nc2c(Br)cc(Br)cn12)C(C)(C)C [Example 288, N-tert-butyl-N-(6,8-dibromo-2-methyl-imidazo[1,2-a]pyridin-3-yl)-acetamide]",62%
4,"CCOc1ccc2ccccc2c1-c1nc2cc(C)ccn2c1N(C(C)=O)C(C)(C)C [Example 290, N-tert-butyl-N-[2-(2-ethoxy-naphthalen-1-yl)-7-methyl-imidazo[1,2-a]pyridin-3-yl]-acetamide]",67%
5,"CC(=O)N(c1c(-c2ccc(F)cc2Cl)nc2ccccn12)C(C)(C)C [Example 291, N-tert-butyl-N-[2-(2-chloro-4-fluoro-phenyl)-imidazo[1,2-a]pyridin-3-yl]-acetamide]",53%

# Further lines, results first:
row,inhibition at 10 µM,Molecule
1,32%,"CCc1ccn2c(NCc3ccccc3OC)c(-c3ccc([N+](=O)[O-])o3)nc2c1 [Example 313, [7-Ethyl-2-(5-nitro-furan-2-yl)-imidazo[1,2-a]pyridin-3-yl]-(2-methoxy-benzyl)-amine]"
2,47%,"CCc1ccn2c(NCc3ccccc3Cl)c(-c3ccc([N+](=O)[O-])o3)nc2c1 [Example 314, (2-Chlorobenzyl)-[7-ethyl-2-(5-nitro-furan-2-yl)-imidazo[1,2-a]pyridin-3-yl]-amine]"
3,32%,"CCc1ccn2c(NCc3ccccc3OC)c(-c3ccc(C)o3)nc2c1 [Example 315, [7-Ethyl-2-(5-methyl-furan-2-yl)-imidazo[1,2-a]pyridin-3-yl]-(2-methoxy-benzyl)-amine]"
4,52%,"CCc1ccn2c(NCc3ccccc3Cl)c(-c3ccco3)nc2c1 [Example 316, (2-Chloro-benzyl)-(7-ethyl-2-furan-2-yl-imidazo[1,2-a]pyridin-3-yl)-amine]"
5,59%,"CCc1ccn2c(Nc3ccc(F)c(Cl)c3)c(-c3ccc(C)o3)nc2c1 [Example 317, (3-Chloro-4-fluoro-phenyl)-[7-ethyl-2-(5-methyl-furan-2-yl)-imidazo[1,2-a]pyridin-3-yl]-amine]"
6,52%,"CCc1ccn2c(Nc3ccc(F)c(Cl)c3)c(-c3cc4ccccc4o3)nc2c1 [Example 318, (2-Benzofuran-2-yl-7-ethyl-imidazo[1,2-a]-pyridin-3-yl)-(3-chloro-4-fluoro-phenyl)-amine]"
7,53%,"CCc1ccn2c(Nc3cccc(Cl)c3)c(-c3cc4ccccc4o3)nc2c1 [Example 319, (2-Benzofuran-2-yl-7-ethyl-imidazo[1,2-a]-pyridin-3-yl)-(3-chloro-phenyl)-amine]"
8,52%,"CCc1ccn2c(Nc3ccc(F)c(Cl)c3)c(-c3ccc(-c4cccc(Cl)c4)o3)nc2c1 [Example 320, (3-Chloro-4-fluorophenyl)-{2-[5-(3-chloro-phenyl)-furan-2-yl]-7-ethyl-imidazo[1,2-a]-pyridin-3-yl}-amine]"
9,50%,"CCc1ccn2c(Nc3ccc(F)c(Cl)c3)c(-c3ccc(-c4ccccc4Cl)o3)nc2c1 [Example 321, (3-Chloro-4-fluorophenyl)-{2-[5-(2-chlorophenyl)-furan-2-yl]-7-ethyl-imidazo[1,2-a]pyridin-3-yl}-amine]"
10,49%,"CCc1ccn2c(Nc3ccc(F)c(Cl)c3)c(-c3cc(C)c(C)o3)nc2c1 [Example 322, (3-Chloro-4-fluorophenyl)-[2-(4,5-dimethyl-furan-2-yl)-7-ethyl-imidazo[1,2-a]pyridin-3-yl]-amine]"

# Molecular target: NOS (Rattus norvegicus, UniProt P29476)
# Assay: Citrulline assay (Bredt and Snyder)
# Assay type: biochemical
# Conditions: not given
# Experimental: This assay was carried out as described by D. S. Bredt and S. H. Snyder (Proc. Natl. Acad. Sci. USA (1990), 87, 682-685).
row,IC50,Molecule
1,2.4 µM,"Cc1ccn2c(NC3CCCCC3)c(-c3ccccc3C(F)(F)F)nc2c1 [Example 292, Cyclohexyl-[7-methyl-2-(2-trifluorO-methyl-phenyl)-imidazo[1,2-a]pyridin-3-yl]-amine; hydrochloride]"
2,9.2 µM,"Cc1cc(C)n2c(NC3CCCCC3)c(-c3ccncc3)nc2c1 [Example 295, Cyclohexyl-(5,7-dimethyl-2-pyridin-4-yl-imidazo[1,2-a]pyridin-3-yl)-amine; hydrochloride]"
3,2.5 µM,"Cc1cc(C)n2c(NC(C)(C)CC(C)(C)C)c(-c3ccco3)nc2c1 [Example 296, (2-Furan-2-yl-5,7-dimethyl-imidazo[1,2-a]-pyridin-3-yl)-(1,1,3,3-tetramethyl-butyl)-amine; hydrochloride]"
4,4.3 µM,"Cc1ccn2c(NC(C)(C)CC(C)(C)C)c(-c3ccccc3F)nc2c1 [Example 298, [2-(2-Fluorophenyl)-7-methyl-imidazo[1,2-a]pyridin-3-yl]-(1,1,3,3-tetramethyl-butyl)-amine; hydrochloride]"
